Consider 16 molecules from PubChem BioAssay (NCI).

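These data come from cells grown in 96-well plates and exposed to compound for 48 hours at five concentrations. Definition used: TGI = concentration required for complete inhibition of growth.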 Bounds are passed on as bounds.

What all share (assay): NCI tumour cell line growth inhibition, 48 h
Assay [1] has as its system EKVX NSCLC.
In assay [2] the test system is TK-10 renal.
Assay [3] has as its system IGROV1 ovarian.
Assay [4] has as its system OVCAR-8 ovarian.
Assay [5] concerns CAKI-1 renal.
Assay [6] concerns SF-295 CNS.
Assay [7] deals with ACHN renal.
Assay [8] concerns MDA-MB-435.

Take `COc1cc2c(/C=C3/C(=O)Nc4ccccc43)c(Cl)[nH]c2cc1C`: the TGI came to 25.1 µM in assay [1]; 21.7 µM in assay [2]; 1.1 µM in assay [3]; 12.6 µM in assay [4]; 23.6 µM in assay [5]; 1.19 µM in assay [6]. The same molecule displayed a TGI in assay [7] of 17.4 µM.

As to `O=C(CSc1n[nH]c(=O)[nH]c1=O)NNC(=O)c1cccc2nc3ccccc3nc12`, the TGI in assay [8], in assay [1], in assay [2], in assay [3], in assay [4] and in assay [5] was above 100 µM in each case. Also, the TGI in assay [6] and in assay [7] was above 100 µM throughout.

On to `CCC(=O)Oc1c2ccsc2c(OC(=O)CC)c2ccsc12`, for which the TGI in assay [8] was determined as 0.159 µM; in assay [1] it was 2.51 µM; in assay [2], 5.25 µM; in assay [3] it was 3.65 µM; in assay [4] it was 1.4 µM; in assay [5], 6.13 µM. In addition, the TGI in assay [6] is 0.675 µM; in assay [7] it was 5.49 µM.

For the molecule `O=[N+]([O-])c1ccc(NC(=S)N=Nc2c(O)[nH]c3ccc(Br)cc23)cc1`, the TGI turned out to be 25.4 µM in assay [8]; 28.5 µM in assay [2]; 18.3 µM in assay [3]; 20 µM in assay [4]; 20.6 µM in assay [5]; 22 µM in assay [6]. This molecule also returned a TGI in assay [7] of 18 µM.

With `CC1(C)CNC(=O)C2(C=NC(C)(C)CNC(=O)C3(C=N1)CCCO3)CCCO2` (centres undefined), the TGI in assay [8], in assay [1], in assay [2], in assay [3], in assay [4] and in assay [5] was above 10 µM each time. The TGI in assay [6] and in assay [7] was above 10 µM each time.

With `Nc1ccc(S(=O)(=O)Nc2nc3ccccc3nc2N2CCCCC2)cc1`, the TGI in assay [8], in assay [1], in assay [2], in assay [3], in assay [4] and in assay [5] was above 100 µM throughout. The TGI in assay [6] and in assay [7] was above 100 µM each time.

In the case of `NC(=O)c1cc2ccccc2o/c1=N/O`, the TGI is above 100 µM in assay [8]; above 100 µM in assay [1]; above 100 µM in assay [2]; above 100 µM in assay [3]; above 100 µM in assay [4]; 70.3 µM in assay [5]. Moreover, the TGI in assay [6] and in assay [7] was above 100 µM throughout.

Take `CNC(=O)N(CCC#N)[C@H]1CCCC[C@@H]1N(C(=O)NC)c1ccccc1`: the TGI in assay [8], in assay [1], in assay [2], in assay [3], in assay [4] and in assay [5] was above 100 µM each time. Further, the TGI in assay [6] and in assay [7] was above 100 µM each time.

For `O=C1C=CC(=O)c2c(O)c(NCCc3ccc(O)cc3)c(Cl)c(O)c21`, the TGI in assay [8], in assay [1], in assay [2], in assay [3], in assay [4] and in assay [5] was above 10 µM in each case. Besides, the TGI in assay [6] and in assay [7] was above 10 µM each time.

With `COc1c(C)c2nc3ccccc3[nH]c2c2c(=O)ccnc12`, the TGI in assay [8], in assay [1], in assay [2], in assay [3], in assay [4] and in assay [5] was above 100 µM in each case. Besides, the TGI in assay [6] and in assay [7] was above 100 µM in each case.

For the molecule `CC1(C)C=C(S(=O)(=O)c2ccccc2)Oc2ccccc2O1`, the TGI in assay [8] is 48 µM; in assay [1], 73.4 µM; in assay [2] it was 36 µM; in assay [3], above 100 µM; in assay [4], above 100 µM; in assay [5] it was above 100 µM. Also, the TGI in assay [6] and in assay [7] was above 100 µM in each case.

Take `c1ccc(/C(=N/Nc2ccccn2)c2ncccn2)cc1`: the TGI in assay [8] was above 100 µM; in assay [1] it was 5.73 µM; in assay [3] it was above 21 µM; in assay [4] it was 3.43 µM; in assay [5], 5.69 µM; in assay [6], above 44.6 µM. The TGI in assay [7] was 13.3 µM.

Take `Brc1ccc2c(-c3csc(-c4c[nH]c5ccc(Br)cc45)n3)c[nH]c2c1`: the TGI came out at 17.7 µM in assay [8]; 7.15 µM in assay [1]; 15.2 µM in assay [2]; 16.4 µM in assay [3]; 24.1 µM in assay [4]; 9.81 µM in assay [5]. For the same molecule, the figures for the TGI in assay [6] and in assay [7] were 10.9 µM and 11.1 µM, respectively.

With `COc1ccc2c(c1)CN1C(=N2)CSC1c1ccccc1Cl` (centres undefined), the TGI was 39.9 µM in assay [8]; 35.4 µM in assay [1]; 68 µM in assay [2]; 42.2 µM in assay [3]; 43.2 µM in assay [4]; above 100 µM in assay [5]. Also, the results for the TGI in assay [6] and in assay [7] were 75.6 µM and 41.8 µM, respectively.

In the case of `Cc1nc(C)c(Cc2ccccc2)o1`, the TGI in assay [8], in assay [1], in assay [2], in assay [3], in assay [4] and in assay [5] was above 100 µM in each case. For the same molecule, the TGI in assay [6] and in assay [7] was above 100 µM throughout.

For the molecule `CCCCc1ccc(Nc2nc3c(ncn3COCCO)c(=O)[nH]2)cc1`, the TGI in assay [8], in assay [1], in assay [2], in assay [3], in assay [4] and in assay [6] was above 100 µM each time. This molecule also displayed a TGI in assay [7] above 100 µM.
